Results reported in patent EP4389751A1, “HETEROCYCLIC COMPOUNDS AND USES THEREOF” (Kumquat Biosciences Inc., priority 2021, dated 2024).

target: T1, K-Ras G12S (Homo sapiens, UniProt P01116, G12S); assay: HTRF assay of the K-Ras / SOS1 interaction; format: biochemical; conditions: IC50 (against K-Ras G12D) to IC50 (against K-Ras G12S)
T1 construct: made in house; host or cells: E. coli (e.g., BL21 (DE3))
Text: This assay can be also used to assess a selective inhibition or reduction of signaling output of a mutant Ras protein relative to a wildtype, or relative to a different mutant Ras protein. For example, the equilibrium interaction of wildtype Kras or K-Ras mutant (e.g., wildtype or a mutant thereof including those mentioned in Example 6) with SOS1 (e.g., hSOS1) can be assessed as a proxy or an indication for a subject compound's ability to bind and inhibit Ras protein. HTRF assay detects from (i) a fluorescence resonance energy transfer (FRET) donor (e.g., antiGST-Europium) that is bound to GST-tagged K-Ras mutant to (ii) a FRET acceptor (e.g., anti-6His-XL665) bound to a His-tagged hSOS 1.
The assay buffer can contain ~5 mM HEPES pH 7.4, -150 mM NaCI, - 1 mM DTT, 0.05% BSA and 0.0025% (v/v) Igepal. A Ras working solution is prepared in an assay buffer containing typically a suitable amount of the protein construct (e.g., GST-tagged K-Ras mutant) and the FRET donor (e.g., antiGST-Eu(K) from Cisbio, France). A SOS1 working solution is prepared in an assay buffer containing suitable amount of the protein construct (e.g., His-hSOS1) and the FRET acceptor (e.g., anti-6His-XL665 from Cisbio, France). A suitable amount of the protein construct will depend on the range of activity or range of IC50 values being detected or under investigation. For detecting IC50 within a range of 500 nM, the protein constructs of the same range of molarity can be utilized.
A fixed volume of DMSO with or without test compound is transferred into a 384-well plate. Ras working solution is added to all wells of the test plate. SOS1 working solution is added to all wells except for those that are subsequently filled the inhibitor control solution. Upon incubation for about 10 minutes or longer, the fluorescence is measured with a M1000Pro plate reader (Tecan) using HTRF detection (excitation 337nm, emission 1 : 620nm, emission 2: 665nm). Compounds are tested in duplicates at different concentrations (for example, 10 µM, 2.5 µM, 0.63 µM, 0.16 µM, 0.04 µM, 0.01 µM test compound). The ratiometric data (i.e., emission 2 divided by emission 1) is used to calculate IC50 values against Ras using GraphPad Prism (GraphPad software). Following this general procedure, samples were tested with or without a subject compound disclosed herein including compounds exemplified in Table 3 to assess their abilities to inhibit K-Ras G12S relative to another mutant (e.g., K-Ras G12D). Signaling output measured in terms of IC50 values can be obtained, a ratio of IC50 against one mutant relative to another mutant can be calculated. For instance, a selective reduction of K-Ras G12S signaling output can be evidenced by a ratio greater than one. In particular, a selective reduction of K-Ras G12S signaling relative to K-Ras G12D signaling is evidenced as the ratio of IC50 (against K-Ras G12D) to IC50 (against K-Ras G12S) is greater than 1. […]

T1 sequence (P01116 1-188 isoform P01116-2 G12S): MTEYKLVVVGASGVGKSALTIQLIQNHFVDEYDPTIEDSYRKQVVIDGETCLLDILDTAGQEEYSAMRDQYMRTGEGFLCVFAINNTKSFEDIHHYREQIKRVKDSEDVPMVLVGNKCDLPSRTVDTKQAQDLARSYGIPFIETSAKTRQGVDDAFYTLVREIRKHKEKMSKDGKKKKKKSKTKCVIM

Question: For `Cc1cnn(C(=O)N2C3CCC2CN(c2nc(OC[C@@]45CCCN4C[C@H](F)C5)nc4c(F)c(-c5ccc(F)c6sc(N)nc56)c(Cl)cc24)C3)c1` [Compound A113, (3-(7-(2-amino-7-fluorobenzo[d]thiazol-4-yl)-6-chloro-8-fluoro-2-(((2R,7aS)-2-fluorotetrahydro-1H-pyrrolizin-7a(5H)-yl)methoxy)quinazolin-4-yl)-3,8-diazabicyclo[3.2.1]octan-8-yl)(4-methyl-1H-pyrazol-1-yl)methanone], which “Ratio of IC50 KRAS G12D vs. IC50 KRAS G12S” value (“Ratio” below) is on record?
Answer: Its value is “A (A: indicates that the ratio of IC50 against KrasG12D vs. IC50 against KrasG12S is 1-fold or greater)”.

Question: For `Nc1nc2c(-c3c(Cl)cc4c(NC5CCN(C(=O)n6cccn6)CC5)nc(OC[C@@]56CCCN5C[C@H](F)C6)nc4c3F)ccc(F)c2s1` [Compound A254, (4-((7-(2-amino-7-fluorobenzo[d]thiazol-4-yl)-6-chloro-8-fluoro-2-(((2R,7aS)-2-fluorotetrahydro-1H-pyrrolizin-7a(5H)-yl)methoxy)quinazolin-4-yl)amino)piperidin-1-yl)(1H-pyrazol-1-yl)methanone], which “Ratio” value is on record?
Answer: Its value is “A (A: indicates that the ratio of IC50 against KrasG12D vs. IC50 against KrasG12S is 1-fold or greater)”.

Question: Which “Ratio” value does the source give for `C[C@H](Oc1nc(N2CCN(C(=O)Nc3nccs3)CC(O)C2)c2cc(Cl)c(-c3ccc(F)c4sc(N)c(C#N)c34)c(F)c2n1)[C@@H]1CCCN1C` (stereo partly drawn) [Compound A118, 4-(7-(2-amino-3-cyano-7-fluorobenzo[b]thiophen-4-yl)-6-chloro-8-fluoro-2-((S)-1-((S)-1-methylpyrrolidin-2-yl)ethoxy)quinazolin-4-yl)-6-hydroxy-N-(thiazol-2-yl)-1,4-diazepane-1-carboxamide] here?
Answer: The value was “A (A: indicates that the ratio of IC50 against KrasG12D vs. IC50 against KrasG12S is 1-fold or greater)”.

Question: How did the “Ratio” value turn out when `N#Cc1nccn1C(=O)N1CCC(Nc2nc(OC[C@@]34CCCN3C[C@H](F)C4)nc3c(F)c(-c4ccc(F)c5sc(N)nc45)c(Cl)cc23)CC1` [Compound A155, 1-(4-((7-(2-amino-7-fluorobenzo[d]thiazol-4-yl)-6-chloro-8-fluoro-2-(((2R,7aS)-2-fluorotetrahydro-1H-pyrrolizin-7a(5H)-yl)methoxy)quinazolin-4-yl)amino)piperidine-1-carbonyl)-1H-imidazole-2-carbonitrile] was run?
Answer: The value was “A (A: indicates that the ratio of IC50 against KrasG12D vs. IC50 against KrasG12S is 1-fold or greater)”.

Question: For `Nc1nc2c(-c3c(Cl)cc4c(N5CC6CCC5CN6C(=O)n5cncn5)nc(OC[C@@]56CCCN5C[C@H](F)C6)nc4c3F)ccc(F)c2s1` (stereo partly drawn) [Compound A192, (5-(7-(2-amino-7-fluorobenzo[d]thiazol-4-yl)-6-chloro-8-fluoro-2-(((2R,7aS)-2-fluorotetrahydro-1H-pyrrolizin-7a(5H)-yl)methoxy)quinazolin-4-yl)-2,5-diazabicyclo[2.2.2]octan-2-yl)(1H-1,2,4-triazol-1-yl)methanone], which “Ratio” value is on record?
Answer: Its value is “A (A: indicates that the ratio of IC50 against KrasG12D vs. IC50 against KrasG12S is 1-fold or greater)”.

Question: `Nc1nc2c(-c3c(Cl)cc4c(NC5CCN(C(=O)Nc6ncccn6)CC5)nc(OC[C@@]56CCCN5C[C@H](F)C6)nc4c3F)ccc(F)c2s1` [Compound A262, 4-((7-(2-amino-7-fluorobenzo[d]thiazol-4-yl)-6-chloro-8-fluoro-2-(((2R,7aS)-2-fluorotetrahydro-1H-pyrrolizin-7a(5H)-yl)methoxy)quinazolin-4-yl)amino)-N-(pyrimidin-2-yl)piperidine-1-carboxamide] was tested. Which “Ratio” value did it give?
Answer: Its value is “A (A: indicates that the ratio of IC50 against KrasG12D vs. IC50 against KrasG12S is 1-fold or greater)”.

Question: Which “Ratio” value does the source give for `N#Cc1c(N)sc2c(F)ccc(-c3c(Cl)cc4c(N5CCOC6(CN(C(=O)n7cncn7)C6)C5)nc(OC[C@@]56CCCN5C[C@H](F)C6)nc4c3F)c12` [Compound A232, 4-(4-(2-(1H-1,2,4-triazole-1-carbonyl)-5-oxa-2,8-diazaspiro[3.5]nonan-8-yl)-6-chloro-8-fluoro-2-(((2R,7aS)-2-fluorotetrahydro-1H-pyrrolizin-7a(5H)-yl)methoxy)quinazolin-7-yl)-2-amino-7-fluorobenzo[b]thiophene-3-carbonitrile] here?
Answer: The value was “A (A: indicates that the ratio of IC50 against KrasG12D vs. IC50 against KrasG12S is 1-fold or greater)”.

Question: How did the “Ratio” value turn out when `Nc1nc2c(-c3c(Cl)cc4c(N5CCC6(CCN(C(=O)n7cncn7)C6)C5)nc(OC[C@@]56CCCN5C[C@H](F)C6)nc4c3F)ccc(F)c2s1` (stereo partly drawn) [Compound A175, (7-(7-(2-amino-7-fluorobenzo[d]thiazol-4-yl)-6-chloro-8-fluoro-2-(((2R,7aS)-2-fluorotetrahydro-1H-pyrrolizin-7a(5H)-yl)methoxy)quinazolin-4-yl)-2,7-diazaspiro[4.4]nonan-2-yl)(1H-1,2,4-triazol-1-yl)methanone] was run?
Answer: The value was “A (A: indicates that the ratio of IC50 against KrasG12D vs. IC50 against KrasG12S is 1-fold or greater)”.

Question: `Nc1nc2c(-c3c(Cl)cc4c(NC5C6CN(C(=O)n7cncn7)CC65)nc(OC[C@@]56CCCN5C[C@H](F)C6)nc4c3F)ccc(F)c2s1` (stereo partly drawn) [Compound A299, (6-((7-(2-amino-7-fluorobenzo[d]thiazol-4-yl)-6-chloro-8-fluoro-2-(((2R,7aS)-2-fluorotetrahydro-1H-pyrrolizin-7a(5H)-yl)methoxy)quinazolin-4-yl)amino)-3-azabicyclo[3.1.0]hexan-3-yl)(1H-1,2,4-triazol-1-yl)methanone] was tested. Which “Ratio” value did it give?
Answer: Its value is “A (A: indicates that the ratio of IC50 against KrasG12D vs. IC50 against KrasG12S is 1-fold or greater)”.

Question: `N#Cc1c(N)sc2c(F)ccc(-c3c(Cl)cc4c(OC5CCN(C(=O)Nc6nccs6)C5)nc(OC[C@@]56CCCN5C[C@H](F)C6)nc4c3F)c12` (stereo partly drawn) [Compound A150, 3-((7-(2-amino-3-cyano-7-fluorobenzo[b]thiophen-4-yl)-6-chloro-8-fluoro-2-(((2R,7aS)-2-fluorotetrahydro-1H-pyrrolizin-7a(5H)-yl)methoxy)quinazolin-4-yl)oxy)-N-(thiazol-2-yl)pyrrolidine-1-carboxamide] was tested. Which “Ratio” value did it give?
Answer: The value was “A (A: indicates that the ratio of IC50 against KrasG12D vs. IC50 against KrasG12S is 1-fold or greater)”.

Question: For `N#Cc1cnn(C(=O)N2C3CCC2CN(c2nc(OC[C@@]45CCCN4C[C@H](F)C5)nc4c(F)c(-c5cc(O)cc6ccccc56)ccc24)C3)c1` [Compound A120, 1-(3-(8-fluoro-2-(((2R,7aS)-2-fluorotetrahydro-1H-pyrrolizin-7a(5H)-yl)methoxy)-7-(3-hydroxynaphthalen-1-yl)quinazolin-4-yl)-3,8-diazabicyclo[3.2. 1]octane-8-carbonyl)-1H-pyrazole-4-carbonitrile], which “Ratio” value is on record?
Answer: The value was “A (A: indicates that the ratio of IC50 against KrasG12D vs. IC50 against KrasG12S is 1-fold or greater)”.

Question: For `N#Cc1ccn(C(=O)N2CCC(Nc3nc(OC[C@@]45CCCN4C[C@H](F)C5)nc4c(F)c(-c5ccc(F)c6sc(N)nc56)c(Cl)cc34)CC2)n1` [Compound A173, 1-(4-((7-(2-amino-7-fluorobenzo[d]thiazol-4-yl)-6-chloro-8-fluoro-2-(((2R,7aS)-2-fluorotetrahydro-1H-pyrrolizin-7a(5H)-yl)methoxy)quinazolin-4-yl)amino)piperidine-1-carbonyl)-1H-pyrazole-3-carbonitrile], which “Ratio” value is on record?
Answer: Its value is “A (A: indicates that the ratio of IC50 against KrasG12D vs. IC50 against KrasG12S is 1-fold or greater)”.
